Consider 4 compounds from patent US20250346943A1, “DEGRADER COMPOUNDS OF QSOX1 mRNA” (UNIVERSITY OF FLORIDA RESEARCH FOUNDATION, INCORPORATED, priority 2022, published 2025).

The test system of the experiment is human transcriptome. Kind of experiment: Chem-CLIP-Map-Seq transcriptome-wide target profiling in live MDA-MB-231 cells. The settings on record: 20 μM, 16 h; for number of transcripts enriched (Chem-CLIP-seq): before excluding control probe overlap. The class given is cell-based. How it is done: Additional studies were performed in live MDA-MB-231 cells to profile the cellular targets as well as the small molecule binding site within them, via Chem-CLIP-Map-Seq,^21 which had not previously been applied transcriptome-wide. After treatment (20 μM; 16 h) and cross-linking, total RNA was harvested and fragmented prior to pull-down (FIG. 2A). Random fragmentation was completed first to: 1) reduce sequence bias in library preparation, 2) reduce background signal in the RNA-seq analysis; and 3) allow for only the regions bound by the small molecules to be pulled down rather than the entire transcript, identifying both the target and the binding site within it. In parallel, a control diazirine probe that lacks an RNA-binding functionality (FIG. 2B) was used to identify targets that non-specifically react with the cross-linking moiety, where cross-linking is not driven by the RNA-binding elements.
Genrich uses a null model with a log-normal distribution to calculate p values by comparing sequencing runs of the same RNA sample before and after pull-down.
Chemical-Cross-linking and Isolation by Pull-down (Chem-CLIP) in Live Cells. MDA-MB-231 cells were seeded in 60 mm dishes and allowed to reach ˜80% confluency. The cells were then treated with 20 μM of compound in growth medium and incubated for 16 h. Cells were washed with 1×DPBS and irradiated with UV light for 10 min. Total RNA was harvested using a Zymo Quick-RNA Miniprep Kit per the manufacturer's protocol with DNase treatment. Total RNA was chemically fragmented by using an NEBNext Magnesium RNA Fragmentation Module (E6150S) per manufacturer's protocol to achieve final lengths between 100-150 nucleotides Pull-down of cross-linked RNAs was performed by adding 10 μg of total RNA to 100 μL of azide-disulfide agarose beads (Click Chemistry Tools, 1238-2) pre-washed with 25 mM HEPES, pH 7.0. The click reaction and pull-down were completed as described in “In Vitro Chemical-Crosslinking and Isolation by Pull-down (Chem-CLIP) with Fluorescently Labeled RNA”. The pulled down RNA was purified by RNA CleanXP beads (Beckman, A66514) per manufacturer's protocol.
RNA-seq Library Preparation and Data Analysis. The quality of the pulled down RNA was analyzed by using an Agilent 2100 Bioanalyzer RNA nanochip as well as to confirm fragment lengths. RNA concentration was quantified by Qubit 2.0 Fluorometer (Invitrogen). The input RNA (200 ng) was depleted of ribosomal RNA with NEBNext rRNA Depletion Module (E6310) according to manufacturer's recommendations. Library preparation was performed with NEBNext Ultra II Directional RNA kit (E7760) per manufacturer's protocols. Briefly, the rRNA-depleted samples were reverse transcribed with random hexamer primers to generate first strand cDNA, followed by second strand synthesis with dUTP instead of dTTP. The cDNA was end repaired and adenylated at their 3′ ends, followed by adaptor ligation. The strand information of the RNA was preserved by using USER enzyme (Uracil-specific excision reagent) to degrade the second strand. The cDNA was then PCR amplified with barcoded Illumina-compatible primers to generate the final libraries. These libraries were loaded into a NextSeq 500 v2.5 flow cell and sequenced with 2×40 bp paired-end chemistry. All fastq files were aligned to the human genome by STAR.^9 The output bam files were processed by Genrich (v0.6.1, available at https://github.com/jsh58/Genrich) for peak calling to identify regions of enrichment (p<0.001 and False Discovery Rate=1%). Fold enrichment was calculated by Deeptool^10 and visualized by IGV browser.^11 A minimum read count of 5 and a minimum fold enrichment of 1.5 were applied filter to filter out low-confidence peaks.

Each structure is given as a SMILES string.

As for `C#CCCC1(CCC(=O)N2CCN(c3nncc4sccc34)CC2)N=N1` [Compound F2], the “number of enriched transcripts also enriched by the control probe” value (“number … by the control probe” below) is reported as 52 transcripts, the “share of enriched transcripts also enriched by the control probe” value (“share” below) amounted to 31%, the “unique transcripts identified for the small molecule” value is reported as 38 and the “number of transcripts enriched (Chem-CLIP-seq)” value (shortened to “number … (Chem-CLIP-seq)”) turned out to be 166 transcripts.

Regarding `C#CCCC1(CCC(=O)N(CCNC(=O)c2ccc(C)c(F)c2)Cc2ccncc2)N=N1` [Compound F3], the “number … by the control probe” value is listed as 53 transcripts, the “share” value was 32% and the “number … (Chem-CLIP-seq)” value was 163 transcripts.

On to `C#CCCC1(CCC(=O)Nc2nnc(SCc3ccc(F)c4cccnc34)n2C)N=N1` [Compound F5], for which the “number … by the control probe” value stood at 57 transcripts, the “number of transcripts enriched after eliminating transcripts also bound by the control diazirine” value is given as 35, the “share” value amounted to 62% and the “unique transcripts identified for the small molecule” value came to 3. Further, the “number … (Chem-CLIP-seq)” value worked out at 92 transcripts.

As for `C#CCCC1(CCC(=O)Nc2nc(-c3ccc(-n4cccn4)cc3)cs2)N=N1` [Compound F6], the “number … by the control probe” value was determined as 55 transcripts, the “share” value stood at 43% and the “number … (Chem-CLIP-seq)” value was determined as 127 transcripts.
